Each structure is given as a SMILES string. Where a SMILES comes first, the peptide text is derived from it. The star is where a group is joined. Biotin = O=C1N[C@H]2[C@H](CS[C@H]2CCCCC(=O)*)N1

Assay [1] concerns the target T1, AR LBD (Pan troglodytes, UniProt O97775).
T1 construct: chimp AR LBD (residues 663–919—human numbering); GST (N, cleaved yes); made in house; host or cells: E. coli BL21 (DE3) STAR
T1 sequence (O97775 655-911 limits assumed): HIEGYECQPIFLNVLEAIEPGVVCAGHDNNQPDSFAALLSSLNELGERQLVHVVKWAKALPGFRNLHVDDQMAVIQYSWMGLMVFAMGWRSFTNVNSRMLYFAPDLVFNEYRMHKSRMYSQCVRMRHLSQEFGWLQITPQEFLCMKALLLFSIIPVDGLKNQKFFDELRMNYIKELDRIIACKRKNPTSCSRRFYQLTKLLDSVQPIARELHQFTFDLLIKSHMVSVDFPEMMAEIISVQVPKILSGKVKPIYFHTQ
Kind of assay: Surface plasmon resonance (Biacore 2000), peptide binding to AR LBD. The class given is chimp (100% identity to the human form in protein sequence). To be noted: for ka1 × 10^-4: association rate, biotinylated peptide immobilised (approx. 250 RU), AR LBD 10, 5, 1 μM and 300 nM, SMRT2 signal subtracted, values are ka1 multiplied by 10^-4; for ka1 × 10^-4 / kd1 × 10^2: step 1 of two-state conformational change model; for ka1 × 10^-4 / Kd2 / kd1 × 10^2 / ka2 × 10^3 / kd2 × 10^3: HBS-P pH 7.4; for Kd2: dissociation constant of step 2, calculated from rate constants, two-state conformational change model; for kd1 × 10^2: dissociation rate, values are kd1 multiplied by 10^2; for ka2 × 10^3: forward rate, values are ka2 multiplied by 10^3; for ka2 × 10^3 / kd2 × 10^3: step 2 of two-state conformational change model; for kd2 × 10^3: reverse rate, values are kd2 multiplied by 10^3. The procedure:
(§1) Expression and purification of the AR LBD for crystallization were performed essentially as described ([Matias et al. 2000]). […] Induction was carried out with 30 μM IPTG at 17 °C for 16–18 h. E. coli cells were lysed in buffer (10 mM Tris, [pH 8.0], 150 mM NaCl, 10% glycerol, 1 mM TCEP, 0.2 mM PMSF) supplemented with 0.5 μg/ml lysozyme, 5 U/ml benzonase, 0.5% CHAPS, and 10 μM DHT. All buffers for further purification steps contained 1 μM DHT. Soluble cell lysate was adsorbed to Glutathione Sepharose 4 Fast Flow resin (Amersham Biosciences), washed with buffer containing 0.1% n-octyl β-glucoside, and eluted with 15 mM glutathione. After cleavage of the GST moiety with thrombin, final purification of the AR LBD was carried out using a HiTrap SP cation exchange column (Amersham Biosciences). Eluted AR LBD was dialyzed overnight at 4 °C against buffer containing 50 mM HEPES (pH 7.2), 10% glycerol, 0.2 mM TCEP, 20 μM DHT, 150 mM Li2SO4, and 0.1% n-octyl β-glucoside, then concentrated to greater than 4 mg/ml for crystallization.
Affinities of peptides to the AR LBD were determined with a Biacore (Piscataway, New Jersey, United States) 2000 instrument. A peptide derived from silencing mediator for RXR and TR 2 (SMRT2) served as a negative control. 1 mM peptide stock solutions in DMSO were diluted into HBS-P buffer (10 mM HEPES [pH 7.4], 150 mM NaCl, 0.005% Surfactant P20) to generate 10 μM working solutions. HBS-P buffer was flowed through the cells to achieve a stable baseline prior to immobilization of the biotinylated peptides. To achieve the binding of approximately 250 RU of peptides to individual cells, working solutions of peptides were diluted to 100 nM in HBS-P buffer. Unbound streptavidin sites were blocked by injection of a 1 mM biotin solution at a rate of 10 μl/min.
Purified AR LBD was diluted into HBS-P buffer to a concentration of 10 μM and injected into all four Flowcells using the Kinject protocol at a flow rate of 10 μl/min (contact time 360 s, dissociation time 360 s). Following the dissociation phase, the surface of the chip was regenerated to remove residual AR LBD by QuickInject of buffer containing 10 mM HEPES and 50% ethylene glycol (pH 11). Following the establishment of a stable baseline, the same procedure was repeated using a series of AR LBD dilutions (5 μM, 1 μM, and 300 nM) in an iterative manner. Analysis of the data was performed using BIAevaluation 3.0 software (Biacore). The SMRT2 signals were subtracted as background from the three remaining peptide signals. Data were best fit using the two-state conformational change model ([Warnmark et al. 2001], [2002]).

For assay [2], the target named is T1, AR LBD. Kind of assay: X-ray crystal structures of AR LBD-peptide complexes, buried surface area. In kind it is chimp (100% identity to the human form in protein sequence). To be noted: calculated with CNS from crystal structure; for Buried surface area, +1: +1 residue; for Buried surface area, +1 / Buried surface area, +4 / Buried surface area, +5: side chain atoms only; for Buried surface area, +4: +4 residue; for Buried surface area, +5: +5 residue; for Buried surface area, Total: AR LBD-peptide complex, DHT-bound. The procedure:
as §1
Purified, concentrated AR LBD was combined with 3x to 6x molar excess of peptide and incubated 1 h at room temperature before crystallization trials. Complexes were crystallized using the hanging drop vapor diffusion method. Protein–peptide solution was combined in a 1:1 ratio with a well solution consisting of 0.6–0.8 M sodium citrate and 100 mM Tris or HEPES buffer (pH 7–8). Crystals typically appeared after 1–2 d, with maximal size attained within 2 wk. For data collection, crystals were swiped into a cryo-protectant solution consisting of well solution plus 10% glycerol before flash freezing in liquid nitrogen. The addition of ethylene glycol to a well concentration of 10%–20% was later found to both improve crystal quality and enable the freezing of crystals directly out of the drop.
Datasets were collected at 100K at the Advanced Light Source (Lawrence Berkeley Laboratory, Berkeley, California, United States), beamline 8.3.1, with either a ADSC Quantum 315 or Quantum 210 CCD detector. Data were processed using Denzo and Scalepack ([Otwinowski and Minor 1997]). Molecular replacement searches were performed with rotation and translation functions from CNS ([Brunger et al. 1998]). Initial searches for AR–FxxLF were performed using the structure of AR–R1881 (PDB: 1E3G) with R1881 omitted from the search model. Subsequent searches for all other complexes were performed using the refined LBD structure from the AR–FxxLF complex. To minimize the possibility of model bias, FxxLF peptide and DHT were omitted from all molecular replacement searches. Protein models were built by iterative rounds of simulated annealing, conjugate gradient minimization, and individual B-factor refinement in CNS followed by manual rebuilding in Quanta 2000 (Accelrys, San Diego, California, United States) using σA-weighted 2F o − F c, F o − F c, and simulated annealing composite omit maps. Superposition of structures was performed with LSQMAN ([Kleywegt 1996]). Buried surface area calculations were performed with CNS. All figures were generated with PyMOL ([DeLano 2002]). Coordinates and structure factors for all complexes have been deposited in the Protein Data Bank.

The target of assay [3] is T1, AR LBD. The assay can be described thus: FRET-based assay of interaction between synthetic peptide and purified AR LBD. To be noted: in vitro; excitation 320 nm, emission 625 and 665 nm; streptavidin-cryptate / streptavidin-XL665; unpublished data. In kind it is binding, chimp (100% identity to the human form in protein sequence). The procedure: Synthetic peptides corresponding to the deduced amino acid sequences from receptor-specific phage were tested for their ability to interact with purified AR LBD using a FRET–based assay format. […] Flourophor conjugates were prepared by incubating either biotinylated peptides with streptavidin-cryptate (Cis Bio International, Bagnols Sur Ceze Cedex, France), or biotinylated AR LBD with streptavidin-XL665 (Cis Bio). Interaction between peptide and AR LBD was monitored by the ratio of energy transfer by excitation at 320 nm and emission at 625 nm and 665 nm.

With `CC(C)C[C@H](NC(=O)[C@H](CO)NC(=O)[C@H](CCC(=O)O)NC(=O)[C@H](Cc1ccccc1)NC(=O)[C@H](CCCNC(=N)N)NC(=O)[C@H](CO)NC(=O)[C@@H](N)CO)C(=O)N[C@@H](Cc1ccccc1)C(=O)N[C@@H](C)C(=O)NCC(=O)N[C@@H](CCC(=O)O)C(=O)N[C@@H](CCCCN)C(=O)N[C@@H](CCC(=O)O)C(=O)N[C@@H](CO)C(=O)N[C@@H](CCCNC(=N)N)C(=O)N[C@@H](CO)C(=O)NCC(=O)N[C@@H](CO)C(=O)NCC(=O)N[C@@H](CCCCNC(=O)CCCC[C@@H]1SC[C@@H]2NC(=O)N[C@@H]21)C(=O)O` [FxxLF] (H-SSRFESLFAGEKESRSGSGK(Biotin)-OH; N-terminus and C-terminus assumed), in assay [1], the “ka1 × 10^-4” value came out at 5.2±1.0 M^-2s^-1, the Kd2 is recorded as 2.6±1.0, the “kd1 × 10^2” value is given as 2.3±0.03 M^-1s^-1 and the “ka2 × 10^3” value is on record as 1.3±0.5 M^--1s^-1. For the same molecule, the “kd2 × 10^3” value in assay [1] is 3.5±0.06 M^-1s^-1. For the same molecule, in assay [2], the “Buried surface area, +1” value is 305 Å^2; the “Buried surface area, +4” value is on record as 189 Å^2; the “Buried surface area, +5” value is on record as 276 Å^2; the “Buried surface area, Total” value is listed as 1012 Å^2.
Turning to `CC(C)C[C@H](NC(=O)[C@H](C)NC(=O)[C@H](C)NC(=O)[C@H](Cc1ccccc1)NC(=O)[C@H](CCCCN)NC(=O)[C@H](CO)NC(=O)[C@@H](N)CO)C(=O)N[C@@H](Cc1c[nH]c2ccccc12)C(=O)N[C@@H](CC(=O)O)C(=O)N1CCC[C@H]1C(=O)N1CCC[C@H]1C(=O)N[C@@H](CCCCN)C(=O)N[C@@H](CC(C)C)C(=O)N[C@@H](CO)C(=O)N[C@@H](CCCNC(=N)N)C(=O)N[C@@H](CO)C(=O)NCC(=O)N[C@@H](CO)C(=O)NCC(=O)N[C@@H](CCCCNC(=O)CCCC[C@@H]1SC[C@@H]2NC(=O)N[C@@H]21)C(=O)O` [FxxLW] (H-SSKFAALWDPPKLSRSGSGK(Biotin)-OH; N-terminus and C-terminus assumed), in assay [1], the “ka1 × 10^-4” value was determined as 5.9±1.5 M^-2s^-1, the Kd2 is on record as 1.6±0.2, the “kd1 × 10^2” value amounted to 3.4±0.04 M^-1s^-1 and the “ka2 × 10^3” value is on record as 3.6±0.3 M^--1s^-1. For the same molecule, the “kd2 × 10^3” value in assay [1] was 5.6±0.05 M^-1s^-1. Moreover, the “affinity relative to FxxLF” value in assay [1] (comparison with FxxLF) is reported as “slightly better than FxxLF”. Moreover, in assay [2], the “Buried surface area, +1” value is listed as 315 Å^2; the “Buried surface area, +4” value is 187 Å^2; the “Buried surface area, +5” value is 313 Å^2; the “Buried surface area, Total” value is reported as 937 Å^2.
As for `CC(C)C[C@H](NC(=O)CNC(=O)[C@H](CCCNC(=N)N)NC(=O)[C@H](CO)NC(=O)[C@@H](N)CO)C(=O)N[C@@H](CC(C)C)C(=O)N[C@@H](Cc1c[nH]c2ccccc12)C(=O)N[C@@H](CC(=O)O)C(=O)N[C@@H](CC(C)C)C(=O)N[C@@H](CC(C)C)C(=O)N[C@H](C(=O)N[C@@H](CCCCN)C(=O)N[C@@H](CC(=O)O)C(=O)N[C@@H](CO)C(=O)N[C@@H](CCCNC(=N)N)C(=O)N[C@@H](CO)C(=O)NCC(=O)N[C@@H](CO)C(=O)NCC(=O)N[C@@H](CCCCNC(=O)CCCC[C@@H]1SC[C@@H]2NC(=O)N[C@@H]21)C(=O)O)[C@@H](C)O` [LxxLL] (H-SSRGLLWDLLTKDSRSGSGK(Biotin)-OH; N-terminus and C-terminus assumed), in assay [1], the “affinity for AR” value is on record as “moderate affinity”, the “ka1 × 10^-4” value is 6.2±4.3 M^-2s^-1, the Kd2 is recorded as 1.6±0.2 and the “kd1 × 10^2” value came to 7.0±0.17 M^-1s^-1. In assay [1], the “ka2 × 10^3” value worked out at 3.2±0.4 M^--1s^-1 and the “kd2 × 10^3” value is on record as 5.0±0.04 M^-1s^-1. Moreover, the “fold weaker affinity than FxxLF” value in assay [1] (Kd ratio relative to FxxLF) is reported as “less than 2 -fold”. In assay [1] (compared with earlier value for TIF2 NR box 3 (He and Wilson 2003)), the “affinity relative to tightest binding p160-derived LxxLL motif, NR box 3 of TIF2” value was “more than three times stronger”. For the same molecule, in assay [3], the “binding to AR in FRET-based screens” value is “demonstrated to bind AR in FRET-based screens in vitro”. Also, in assay [2], the “Buried surface area, +1” value is reported as 271 Å^2; the “Buried surface area, +4” value is listed as 193 Å^2; the “Buried surface area, +5” value is 241 Å^2; the “Buried surface area, Total” value was 984 Å^2.

(Values after PMC509409, “Recognition and Accommodation at the Androgen Receptor Coactivator Binding Interface” (PLoS Biology, 2004).)
